Measured values: article PMC7180572, “5-Alkylamino-N-phenylpyrazine-2-carboxamides: Design, Preparation, and Antimycobacterial Evaluation” (Molecules, 2020)
Values after ≈ are worked out from the molar mass of the structure shown.

Key:
[1] = tested on: HepG2 cells; test: HepG2 cytotoxicity, CellTiter 96 (MTS) assay; type: cell-based, human; details: for IC50: Homo sapiens, HepG2, 24 h incubation, > means higher concentration not reproducible due to precipitation, read-out: HepG2 IC50
[2] = tested on: Mycobacterium smegmatis DSM 43465 (ATCC 607); test: Microdilution broth, modified Microplate Alamar Blue Assay, whole cell growth inhibition; type: cell-based; details: Mycolicibacterium smegmatis; in vitro, Middlebrook 7H9 broth, resazurin; read-out: MIC Mycobacterium smegmatis
[3] = type: physicochemical
Experimental: As a complementary test, final compounds were tested for in vitro activity against selected fungal and bacterial pathogens of clinical importance. The microdilution broth method was performed according to The European Committee on Antimicrobial Susceptibility Testing (EUCAST) instructions with slight modifications. The minimum inhibitory concentration was expressed in µM. Not all compounds were evaluated due to the fact of a problem with solubility which occurred for 18 samples. […] See Supplementary Materials for the list of tested strains, methodology, and full results.

[4] = tested on: M. kansasii CNCTC My 235/80 (ATCC 12478); test: 96 well plate microdilution broth method with Alamar Blue; type: cell-based; details: Mycobacterium kansasii, ATCC12478; Middlebrook 7H9 broth pH 6.6; read-out: MIC Mycobacterium kansasii
[5] = tested on: Mycobacterium aurum DSM 43999 (ATCC 23366); test: Microdilution broth, modified Microplate Alamar Blue Assay, whole cell growth inhibition; type: cell-based; details: Mycolicibacterium aurum; in vitro, Middlebrook 7H9 broth, resazurin; read-out: MIC Mycobacterium aurum
[6] = tested on: M. avium ssp. avium CNCTC My 80/72 (ATCC 15769); test: 96 well plate microdilution broth method with Alamar Blue; type: cell-based; details: Mycobacterium avium, ATCC15769; Middlebrook 7H9 broth pH 6.6; read-out: MIC Mycobacterium avium
[7] = tested on: Mycobacterium tuberculosis H37Ra ITM-M006710 (ATCC 9431); test: Microdilution broth, modified Microplate Alamar Blue Assay, whole cell growth inhibition; type: cell-based; details: Mycobacterium tuberculosis; in vitro, Middlebrook 7H9 broth, resazurin; read-out: MIC Mtb H37Ra
[8] = tested on: Pseudomonas aeruginosa ATCC 27853, CCM 3955; test: Antibacterial microdilution broth method (EUCAST); type: cell-based; details: 48 h, read-out: MIC against Pseudomonas aeruginosa
[9] = tested on: Enterococcus faecalis ATCC 29212, CCM 4224; test: Antibacterial microdilution broth method (EUCAST); type: cell-based; details: 48 h, read-out: MIC against Enterococcus faecalis
[10] = tested on: Serratia marcescens; test: Antibacterial microdilution broth method (EUCAST); type: cell-based; details: 48 h, standards, read-out: MIC against Serratia marcescens
[11] = tested on: Klebsiella pneumoniae ATCC 10031, CCM 4415; test: Antibacterial microdilution broth method (EUCAST); details: Klebsiella pneumoniae, ATCC10031|CCM4415, 48 h, read-out: MIC against Klebsiella pneumoniae
[12] = tested on: Staphylococcus aureus methicillin resistant ATCC 43300, CCM 4750; test: microbe, parasite or virus in culture; type: cell-based; details: 48 h, read-out: MIC against Staphylococcus aureus methicillin resistant
[13] = tested on: Staphylococcus epidermidis ATCC 12228, CCM 4418; test: Antibacterial microdilution broth method (EUCAST); type: cell-based; details: 48 h, read-out: MIC against Staphylococcus epidermidis
[14] = tested on: Escherichia coli ATCC 25922, CCM 3954; test: Antibacterial microdilution broth method (EUCAST); type: cell-based; details: 48 h, read-out: MIC against Escherichia coli
[15] = tested on: Staphylococcus aureus spp.aureus ATCC 29213, CCM 4223; test: Antibacterial microdilution broth method (EUCAST); type: cell-based; details: 48 h, read-out: MIC against Staphylococcus aureus

| SMILES | IC50 [1] [µM] | MIC [2] [µg/mL] | melting point [°C] | Solubility problem in antibacterial/antifungal testing [3] | MIC [4] [µg/mL] | MIC [5] [µg/mL] | MIC [6] [µg/mL] | MIC [7] [µg/mL] | SI, selectivity index ([1]; IC50 (HepG2)/MIC against Mtb H37Ra (in µM)) | MIC [8] [µg/mL] | MIC [9] [µg/mL] | MIC [10] [µg/mL] | MIC [11] [µg/mL] | MIC [12] [µg/mL] | MIC [13] [µg/mL] | MIC [14] [µg/mL] | MIC [15] [µg/mL] |
| --- | --- | --- | --- | --- | --- | --- | --- | --- | --- | --- | --- | --- | --- | --- | --- | --- | --- |
| CCCCCNc1cnc(C(=O)Nc2ccc(Cl)cc2O)cn1 [Compound 6c, N-(4-chloro-2-hydroxyphenyl)-5-(pentylamino)pyrazine-2-carboxamide] | 81.1 | 3.91 (≈ 11.7 µM) | 206.5 to 208.7 | did not dissolve in DMSO | 25 (≈ 74.7 µM) | ≥ 500 | > 100 | ≥ 500 |  |  |  |  |  |  |  |  |  |
| CCCCCCNc1cnc(C(=O)Nc2ccc(Cl)cc2O)cn1 [Compound 6d, N-(4-chloro-2-hydroxyphenyl)-5-(hexylamino)pyrazine-2-carboxamide] | > 50 | 3.91 (≈ 11.2 µM) | 201.7 to 204.9 | did not dissolve in DMSO | 25 (≈ 71.7 µM) | ≥ 500 | > 100 | 3.13 (≈ 8.97 µM) | >5.27 |  |  |  |  |  |  |  |  |
| CCCCCCCNc1cnc(C(=O)Nc2ccc(Cl)cc2O)cn1 [Compound 6e, N-(4-chloro-2-hydroxyphenyl)-5-(heptylamino)pyrazine-2-carboxamide] | > 25 | ≥ 500 | 199.8 to 200.8 | did not dissolve in DMSO | 25 (≈ 68.9 µM) | ≥ 500 | > 100 | ≥ 500 |  |  |  |  |  |  |  |  |  |
| CNC(C)C1CCC(N)C(OC2C(N)CC(N)C(OC3OCC(C)(O)C(NC)C3O)C2O)O1 (stereo not drawn) [gentamicin, reference compound] |  |  |  |  |  |  |  |  |  | 0.5 (≈ 1.05 µM) | 8 (≈ 16.8 µM) | 2 (≈ 4.19 µM) | > 8 | 16 to 32 (≈ 33.5 to 67 µM) | > 8 | 1 to 2 (≈ 2.09 to 4.19 µM) | 1 (≈ 2.09 µM) |
